{"source": "paper PMC11111408", "about": "“Concurrent inhibition of oncogenic and wild-type RAS-GTP for cancer therapy” (Nature, 2024)", "test_system": "AsPC-1 and NCI-H441 cells", "experiment": "pERK (MSD) and proliferation (CTG) in AsPC-1 and NCI-H441 cells, CYPA inhibitor co-treatment or PPIA KO;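 as to Proliferation inhibition with CYPA inhibitor competition: luminescence as % of CYPA inhibitor-only control with 3 mM sanglifehrin A competitor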", "format": "cell-based, human", "conditions": "for Proliferation, RMC-7977 with or without CYPA inhibitor (panel title not shown): ASPC1, RMC-7977 alone", "note": "Several values for one entry are separate records, joined by “and”; a condition that tells them apart may be missing. Identical values can stand only once. Like-named read-outs stand apart in the source and are kept apart here."}
{"smiles": "CCn1c(-c2cc(N3CCN(C4CC4)CC3)cnc2[C@H](C)OC)c2c3cc(ccc31)-c1csc(n1)C[C@H](NC(=O)[C@H]1[C@@H]3COC[C@@H]31)C(=O)N1CCC[C@H](N1)C(=O)OCC(C)(C)C2", "note": "[RMC-7977]", "values": [{"measurement": "Proliferation inhibition with CYPA inhibitor competition", "setting": "ASPC1, RMC-7977 0.0152 nM", "value": 90.9654}, {"measurement": "pERK signal remaining (% of control) with CYPA inhibitor competition", "setting": "ASPC1, RMC-7977 0.0152 nM", "value": "120.616 and 135.308 and 125.91 and 115.107"}, {"measurement": "Proliferation inhibition with CYPA inhibitor competition", "setting": "ASPC1, RMC-7977 0.0457 nM", "value": 85.8573}, {"measurement": "pERK signal remaining (% of control) with CYPA inhibitor competition", "setting": "ASPC1, RMC-7977 0.0457 nM", "value": "139.301 and 149.714 and 121.136 and 102.253"}, {"measurement": "Proliferation inhibition with CYPA inhibitor competition", "setting": "ASPC1, RMC-7977 0.41 nM", "value": "72.6185 and 81.3976"}, {"measurement": "pERK signal remaining (% of control) with CYPA inhibitor competition", "setting": "ASPC1, RMC-7977 0.41 nM", "value": "110.343 and 126.372 and 94.9104 and 97.1292"}, {"measurement": "Proliferation inhibition with CYPA inhibitor competition", "setting": "ASPC1, RMC-7977 3.70 nM", "value": "35.3653 and 35.6028"}, {"measurement": "Proliferation inhibition with CYPA inhibitor competition", "setting": "ASPC1, RMC-7977 11.11 nM", "value": "15.7797 and 21.3117"}, {"measurement": "Proliferation inhibition with CYPA inhibitor competition", "setting": "ASPC1, RMC-7977 33.33 nM", "value": "8.746 and 8.58"}, {"measurement": "Proliferation inhibition with CYPA inhibitor competition", "setting": "ASPC1, RMC-7977 100.00 nM", "value": "4.002 and 7.934"}, {"measurement": "Proliferation, RMC-7977 with or without CYPA inhibitor (panel title not shown)", "setting": "0.0152 nM, 15.2 pM", "value": 91.3484}, {"measurement": "Proliferation, RMC-7977 with or without CYPA inhibitor (panel title not shown)", "setting": "0.0457 nM, 45.7 pM", "value": 92.4729}, {"measurement": "Proliferation, RMC-7977 with or without CYPA inhibitor (panel title not shown)", "setting": "0.41 nM, 0.00041 µM", "value": 80.9316}, {"measurement": "Proliferation, RMC-7977 with or without CYPA inhibitor (panel title not shown)", "setting": "3.70 nM, 0.0037 µM", "value": 50.3479}, {"measurement": "Proliferation, RMC-7977 with or without CYPA inhibitor (panel title not shown)", "setting": "11.11 nM, 0.01111 µM", "value": 24.3804}, {"measurement": "Proliferation, RMC-7977 with or without CYPA inhibitor (panel title not shown)", "setting": "33.33 nM, 0.03333 µM", "value": 12.3077}, {"measurement": "Proliferation, RMC-7977 with or without CYPA inhibitor (panel title not shown)", "setting": "100.00 nM, 0.1 µM", "value": 7.228}, {"measurement": "Proliferation, RMC-7977 with or without CYPA inhibitor (panel title not shown)", "setting": "300.00 nM, 0.3 µM", "value": 13.3948}, {"measurement": "Proliferation, RMC-7977 with or without CYPA inhibitor (panel title not shown)", "setting": "[…], 5.08 pM", "value": 94.1273}, {"measurement": "activity at 0.0037 µM", "setting": "Homo sapiens, ASPC1, read-out: Proliferation inhibition in PPIA KO cells treated with RMC-7977, AsPC-1, 3.70 nM", "value": 33, "unit": "%"}, {"measurement": "activity at 0.01111 µM", "setting": "Homo sapiens, ASPC1, read-out: Proliferation inhibition in PPIA KO cells treated with RMC-7977, AsPC-1, 11.11 nM", "value": 17.6, "unit": "%"}, {"measurement": "activity at 0.03333 µM", "setting": "Homo sapiens, ASPC1, read-out: Proliferation inhibition in PPIA KO cells treated with RMC-7977, AsPC-1, 33.33 nM", "value": 8.78, "unit": "%"}, {"measurement": "activity at 15.2 pM", "setting": "Homo sapiens, ASPC1, read-out: Proliferation, RMC-7977 with or without CYPA inhibitor (panel title not shown), ASPC1, RMC-7977 alone, 0.0152 nM", "value": 102, "unit": "%"}, {"measurement": "activity at 45.7 pM", "setting": "Homo sapiens, ASPC1, read-out: Proliferation, RMC-7977 with or without CYPA inhibitor (panel title not shown), ASPC1, RMC-7977 alone, 0.0457 nM", "value": 92.6, "unit": "%"}, {"measurement": "activity at 0.00041 µM", "setting": "Homo sapiens, ASPC1, read-out: Proliferation, RMC-7977 with or without CYPA inhibitor (panel title not shown), ASPC1, RMC-7977 alone, 0.41 nM", "value": 84.8, "unit": "%"}, {"measurement": "activity at 0.0037 µM", "setting": "Homo sapiens, ASPC1, read-out: Proliferation, RMC-7977 with or without CYPA inhibitor (panel title not shown), ASPC1, RMC-7977 alone, 3.70 nM", "value": 47.4, "unit": "%"}, {"measurement": "activity at 0.01111 µM", "setting": "Homo sapiens, ASPC1, read-out: Proliferation, RMC-7977 with or without CYPA inhibitor (panel title not shown), ASPC1, RMC-7977 alone, 11.11 nM", "value": 29.5, "unit": "%"}, {"measurement": "activity at 0.03333 µM", "setting": "Homo sapiens, ASPC1, read-out: Proliferation, RMC-7977 with or without CYPA inhibitor (panel title not shown), ASPC1, RMC-7977 alone, 33.33 nM", "value": 12.8, "unit": "%"}, {"measurement": "activity at 0.1 µM", "setting": "Homo sapiens, ASPC1, read-out: Proliferation, RMC-7977 with or without CYPA inhibitor (panel title not shown), ASPC1, RMC-7977 alone, 100.00 nM", "value": 7.14, "unit": "%"}, {"measurement": "activity at 0.3 µM", "setting": "Homo sapiens, ASPC1, read-out: Proliferation, RMC-7977 with or without CYPA inhibitor (panel title not shown), ASPC1, RMC-7977 alone, 300.00 nM", "value": 14.9, "unit": "%"}, {"measurement": "activity at 5.08 pM", "setting": "Homo sapiens, ASPC1, read-out: Proliferation, RMC-7977 with or without CYPA inhibitor (panel title not shown), ASPC1, RMC-7977 alone, […]", "value": 101, "unit": "%"}, {"measurement": "activity at 0.00041 µM", "setting": "Homo sapiens, ASPC1, read-out: pERK inhibition in PPIA KO cells treated with RMC-7977, AsPC-1, 0.41 nM", "value": 85.8, "unit": "%"}, {"measurement": "activity at 5.08 pM", "setting": "Homo sapiens, ASPC1, read-out: pERK inhibition in PPIA KO cells treated with RMC-7977, AsPC-1, […]", "value": 109, "unit": "%"}, {"measurement": "activity at 0.0037 µM", "setting": "Homo sapiens, ASPC1, read-out: pERK inhibition in PPIA KO cells treated with RMC-7977, AsPC-1 PPIA KO, 3.70 nM", "value": 109, "unit": "%"}, {"measurement": "activity at 0.01111 µM", "setting": "Homo sapiens, ASPC1, read-out: pERK inhibition in PPIA KO cells treated with RMC-7977, AsPC-1 PPIA KO, 11.11 nM", "value": 110, "unit": "%"}, {"measurement": "activity at 15.2 pM", "setting": "Homo sapiens, NCI-H441, read-out: Proliferation inhibition in PPIA KO cells treated with RMC-7977, NCI-H441, 0.0152 nM", "value": 124, "unit": "%"}, {"measurement": "activity at 45.7 pM", "setting": "Homo sapiens, NCI-H441, read-out: Proliferation inhibition in PPIA KO cells treated with RMC-7977, NCI-H441, 0.0457 nM", "value": 124, "unit": "%"}, {"measurement": "activity at 0.0037 µM", "setting": "Homo sapiens, NCI-H441, read-out: Proliferation inhibition in PPIA KO cells treated with RMC-7977, NCI-H441, 3.70 nM", "value": 33, "unit": "%"}, {"measurement": "activity at 0.01111 µM", "setting": "Homo sapiens, NCI-H441, read-out: Proliferation inhibition in PPIA KO cells treated with RMC-7977, NCI-H441, 11.11 nM", "value": 24.4, "unit": "%"}, {"measurement": "activity at 0.03333 µM", "setting": "Homo sapiens, NCI-H441, read-out: Proliferation inhibition in PPIA KO cells treated with RMC-7977, NCI-H441, 33.33 nM", "value": 22.2, "unit": "%"}, {"measurement": "activity at 0.1 µM", "setting": "Homo sapiens, NCI-H441, read-out: Proliferation inhibition in PPIA KO cells treated with RMC-7977, NCI-H441, 100.00 nM", "value": 23.6, "unit": "%"}]}
